Measurements as given in ChEMBL document CHEMBL5126659, “Antiasthmatic Compounds Targeting β2-Adrenergic Receptor from Perilla frutescens Improved Lung Inflammation by Inhibiting the NF-κB Signaling Pathway” (J Nat Prod, 2022).
Calls of active or inactive are those of the source.

Columns and labels:
Type in all cases: functional, organism-based
Rattus norvegicus [1] = test: Anti-asthmatic activity against ovalbumin-induced asthmatic Sprague-Dawley rat model assessed as reduction in inflammatory cell infiltration in lungs at 4.5 to 18 mg/kg, po for 7 days by H and E staining based microscopic analysis; conditions: dose 4.5-18 mg/kg, time 7.0 day
Rattus norvegicus [2] = test: Anti-asthmatic activity against ovalbumin-induced asthmatic Sprague-Dawley rat model assessed as reduction in CCR3 mRNA expression in lungs at 4.5 to 18 mg/kg, po for 7 days by qRT-PCR analysis; conditions: dose 4.5-18 mg/kg, time 7.0 day
Rattus norvegicus [3] = test: Anti-asthmatic activity against ovalbumin-induced asthmatic Sprague-Dawley rat model assessed as reduction in AMCase mRNA expression in lungs at 4.5 to 18 mg/kg, po for 7 days by qRT-PCR analysis; conditions: dose 4.5-18 mg/kg, time 7.0 day
Rattus norvegicus [4] = test: Anti-asthmatic activity against ovalbumin-induced asthmatic Sprague-Dawley rat model assessed as reduction in E-selectin mRNA expression in lungs at 4.5 to 18 mg/kg, po for 7 days by qRT-PCR analysis; conditions: dose 4.5-18 mg/kg, time 7.0 day
Rattus norvegicus [5] = test: Anti-asthmatic activity against ovalbumin-induced asthmatic Sprague-Dawley rat model assessed as reduction in CCL11 mRNA expression in lungs at 4.5 to 18 mg/kg, po for 7 days by qRT-PCR analysis; conditions: dose 4.5-18 mg/kg, time 7.0 day
Rattus norvegicus [6] = test: Anti-asthmatic activity against ovalbumin-induced asthmatic Sprague-Dawley rat model assessed as reduction in OVA specific IgE level in serum at 4.5 to 9 mg/kg, po for 7 days by ELISA; conditions: dose 4.5-9 mg/kg, time 7.0 day, DDE = dose-dependent effect
Rattus norvegicus [7] = test: Anti-asthmatic activity against ovalbumin-induced asthmatic Sprague-Dawley rat model assessed as reduction in OVA specific IgE level in serum at 4.5 to 18 mg/kg, po for 7 days by ELISA; conditions: dose 4.5-18 mg/kg, time 7.0 day
Rattus norvegicus [8] = test: Anti-asthmatic activity against ovalbumin-induced asthmatic Sprague-Dawley rat model assessed as reduction in OVA specific IgE level in BALF at 4.5 to 18 mg/kg, po for 7 days by ELISA; conditions: dose 4.5-18 mg/kg, time 7.0 day
Rattus norvegicus [9] = test: Anti-asthmatic activity against ovalbumin-induced asthmatic Sprague-Dawley rat model assessed as reduction in NFkappaB protein expression in lungs at 4.5 to 18 mg/kg, po for 7 days by immunohistochemistry analysis; conditions: dose 4.5-18 mg/kg, time 7.0 day
Rattus norvegicus [10] = test: Anti-asthmatic activity against ovalbumin-induced asthmatic Sprague-Dawley rat model assessed as reduction in total IgE level in BALF at 4.5 to 18 mg/kg, po for 7 days by ELISA; conditions: dose 4.5-18 mg/kg, time 7.0 day
Rattus norvegicus [11] = test: Anti-asthmatic activity against ovalbumin-induced asthmatic Sprague-Dawley rat model assessed as reduction in IL-4 cytokine level in BALF at 4.5 to 18 mg/kg, po for 7 days by ELISA; conditions: dose 4.5-18 mg/kg, time 7.0 day
Rattus norvegicus [12] = test: Anti-asthmatic activity against ovalbumin-induced asthmatic Sprague-Dawley rat model assessed as reduction in IL-5 cytokine level in BALF at 4.5 to 18 mg/kg, po for 7 days by ELISA; conditions: dose 4.5-18 mg/kg, time 7.0 day
Rattus norvegicus [13] = test: Anti-asthmatic activity against ovalbumin-induced asthmatic Sprague-Dawley rat model assessed as reduction in NFkappaB protein expression in lungs at 4.5 to 18 mg/kg, po for 7 days by western blot analysis; conditions: dose 4.5-18 mg/kg, time 7.0 day
Rattus norvegicus [14] = test: Anti-asthmatic activity against ovalbumin-induced asthmatic Sprague-Dawley rat model assessed as reduction in IL-13 cytokine level in BALF at 4.5 to 18 mg/kg, po for 7 days by ELISA; conditions: dose 4.5-18 mg/kg, time 7.0 day
Rattus norvegicus [15] = test: Anti-asthmatic activity against ovalbumin-induced asthmatic Sprague-Dawley rat model assessed as reduction in OVA specific IgE level in BALF at 4.5 to 9 mg/kg, po for 7 days by ELISA; conditions: dose 4.5-9 mg/kg, time 7.0 day, DDE = dose-dependent effect
Rattus norvegicus [16] = test: Anti-asthmatic activity against ovalbumin-induced asthmatic Sprague-Dawley rat model assessed as reduction in airway epithelial thickening in lungs at 4.5 to 18 mg/kg, po for 7 days by H and E staining based microscopic analysis; conditions: dose 4.5-18 mg/kg, time 7.0 day
Rattus norvegicus [17] = test: Anti-asthmatic activity against ovalbumin-induced asthmatic Sprague-Dawley rat model assessed as reduction in YM2 mRNA expression in lungs at 4.5 to 18 mg/kg, po for 7 days by qRT-PCR analysis; conditions: dose 4.5-18 mg/kg, time 7.0 day
Rattus norvegicus [18] = test: Anti-asthmatic activity against ovalbumin-induced asthmatic Sprague-Dawley rat model assessed as reduction in total IgE level in serum at 4.5 to 18 mg/kg, po for 7 days by ELISA; conditions: dose 4.5-18 mg/kg, time 7.0 day
Rattus norvegicus [19] = test: Anti-asthmatic activity against ovalbumin-induced asthmatic Sprague-Dawley rat model assessed as reduction in eotaxin level in BALF at 4.5 to 18 mg/kg, po for 7 days by ELISA; conditions: dose 4.5-18 mg/kg, time 7.0 day

Measured: Activity

O=C(/C=C/c1ccc(O)c(O)c1)O[C@H](Cc1ccc(O)c(O)c1)C(=O)O
active: Rattus norvegicus [1] | Rattus norvegicus [2] | Rattus norvegicus [3] | Rattus norvegicus [4] | Rattus norvegicus [5] | Rattus norvegicus [6] Dde | Rattus norvegicus [7] | Rattus norvegicus [8] | Rattus norvegicus [9] | Rattus norvegicus [10] | Rattus norvegicus [11] | Rattus norvegicus [12] | Rattus norvegicus [13] | Rattus norvegicus [14] | Rattus norvegicus [15] Dde | Rattus norvegicus [16] | Rattus norvegicus [17] | Rattus norvegicus [18] | Rattus norvegicus [19]
